Assay results: ChEMBL document CHEMBL1158633, “Synthesis and biological activity of alpha-glucosyl C24:0 and C20:2 ceramides” (2010)

tested on: iNKT; test: Induction of cellular expansion in human iNKT cells at 250 nM after 8 days; type: functional

Structure (SMILES) | Activity
CCCCC/C=C\C/C=C\CCCCCCCCCC(=O)N[C@@H](CO[C@H]1O[C@H](CO)[C@@H](O)[C@H](O)[C@H]1O)[C@H](O)[C@H](O)CCCCCCCCCCCCCC | 33%
CCCCC/C=C\C/C=C\CCCCCCCCCC(=O)N[C@@H](CO[C@H]1O[C@H](CO)[C@H](O)[C@H](O)[C@H]1O)[C@H](O)[C@H](O)CCCCCCCCCCCCCC | 37%
CCCCCCCCCCCCCCCCCCCCCCCCCC(=O)N[C@@H](CO[C@H]1O[C@H](CO)[C@H](O)[C@H](O)[C@H]1O)[C@H](O)[C@H](O)CCCCCCCCCCCCCC [RGI-7000] | 34%
